Reference: paper PMC8121805, “Discovery of first-in-class inhibitors of ASH1L histone methyltransferase with anti-leukemic activity” (Nature Communications, 2021)
Several values for one entry are separate records, joined by “and”; a condition that tells them apart may be missing. Identical values can stand only once.

Experiments:
Format in all cases: cell-based, human
KOPN8 cells [1] = test: MTT cell viability assay; conditions: MTT, 7 days
Experimental: (§1) Human leukemia cells K562, MV4;11 and RS4;11 (purchased from ATCC) and KOPN8, MOLM13 (purchased from DSMZ) were cultured in RPMI 1640 (Invitrogen) supplemented with 10% heat inactivated (h.i.) FBS and 1% penicillin/streptomycin (Invitrogen). SET2 cells (purchased from DSMZ) were cultured in RPMI 1640 supplemented with 20% h.i. FBS and 1% penicillin/streptomycin. Cells were plated at 1 × 10^5 to 2 × 10^5 cells/mL depending on cell line and treated with 0.25% DMSO or varying concentrations of compounds and incubated at 37 °C, 5% CO2 incubator for 7 days. Media was changed on day 3 or 4 and compounds were resupplied. […] Cell suspensions (100 μL) were transferred to the 96-well plates for each sample in quadruplicate at the time of media change. At day 7, 10 µL of MTT reagent (M6494, Molecular Probes™) was added to each well of the 96 well plate and incubated at 37 °C for 4 h. The formazan was then solubilized by adding 100 µL acidified 10% SDS solution and incubated at 37 °C overnight. Plates were read for absorbance at 570 nm using a PHERAstar BMG microplate reader. The experiments were performed two times in quadruplicates with calculation of mean and SD for each condition. Data were analyzed in Prism 8.0.0 to obtain GI50 values.
(§2) Supplementary Figure 7. […] (a)
(§3) Titration curves from the MTT cell viability assay performed after 4, 7, and 11 (or 10) days of
(§4) Titration curves from the MTT cell viability assay performed after 7 days of treatment of KOPN8 ,
(§5) MOLM13 and MV4;11 cell lines harboring MLL1 translocation (MLL1-r) or K562 cell line (non-
(§6) Representative graphs are shown
(§7) from two independent MTT experiments performed for each cell line. GI50 values correspond to […]

K562 cells = test: MTT cell viability assay; conditions: MTT, 7 days
Experimental: as §1, §2, §3, §4, §5, §6, §7

KOPN8 cells [2] = test: Annexin V apoptosis assay (flow cytometry); conditions: 7 days
MV4;11 cells = test: MTT cell viability assay; conditions: MTT, 7 days
Experimental: (§8) FBS and 1% penicillin/streptomycin. […] Media was changed on day 3 or 4 and compounds were resupplied. […] Cell suspensions (100 μL) were transferred to the 96-well plates for each sample in quadruplicate at the time of media change. At day 7, 10 µL of MTT reagent (M6494, Molecular Probes™) was added to each well of the 96 well plate and incubated at 37 °C for 4 h. The formazan was then solubilized by adding 100 µL acidified 10% SDS solution and incubated at 37 °C overnight. Plates were read for absorbance at 570 nm using a PHERAstar BMG microplate reader. The experiments were performed two times in quadruplicates with calculation of mean and SD for each condition. Data were analyzed in Prism 8.0.0 to obtain GI50 values.
as §2, §3, §4, §5, §6
(§9) from two independent MTT experiments performed for each cell line.

MOLM13 cells = test: MTT cell viability assay; conditions: MTT, 7 days
Experimental: as §8, §2, §3, §4, §5, §6, §9

[3] = test system: MLL fusion target genes in MV4;11 cells; test: Real time qRT-PCR gene expression; conditions: AS-nc 3 uM
Experimental: 0.5 × 10^6 – 3 × 10^6 cells from each sample were collected at days 7 or 8 of treatment, centrifuged at 211 xg, and RNA was extracted according to the RNeasy Mini Kit protocol (74106, Qiagen). Extracted RNA was quantified using Nanodrop 2000 UV-Vis spectrophotometer and 0.5–1 µg of total RNA was reverse transcribed into cDNA using High-Capacity cDNA Reverse Transcription Kit (4368814, Applied Biosystems™) according to the manufacturer’s protocol. Real-time PCR was performed using the CFX96 Touch Real-Time PCR Detection System (Bio-Rad). TaqMan Gene Expression Master Mix and TaqMan Gene Expression Assays were purchased from Applied Biosystems. Relative quantification of each gene transcript was carried out using the comparative Ct method as described in the Applied Biosystems User Bulletin no. 2. TaqMan Gene Expression Assays were used: HPRT1: Hs02800695_m1, DLX2: Hs00269993_m1, FLT3: Hs00174690_m1, HOXA9: Hs00365956_m1, MEF2C: Hs00231149_m1, MEIS1: Hs00180020_m1, MNDA: Hs00935905_m1.
Supplementary Figure 10. Effect of AS-nc on gene expression in MLL leukemia cells. (a, b) Quantitative RT-PCR performed in MOLM13 cells (a) or MV4;11 cells (b) after 7 days of treatment with AS-nc. Gene expression was normalized to HPRT1 and referenced to the DMSO treated cells. Representative data from two independent experiments, each performed in triplicates, […]

Question: For `CN1CC(C(=O)NCc2ccc3c(-c4cccc(C(N)=O)c4)cn(C4CCN(S(=O)(=O)C(F)(F)F)CC4)c3c2)C1` [AS-nc], which “% activity KOPN-8” value (KOPN8 cells [1]; log[compound] -4.92082) is on record?
Answer: 88.0603% and 89.0658% and 78.5086% and 67.1135%

Question: What about the “% activity KOPN-8” value (KOPN8 cells [1]; log[compound] -5.22185) of the same compound?
Answer: 96.2715% and 87.8928% and 88.5631% and 98.2824%

Question: What about the “% activity KOPN-8” value (KOPN8 cells [1]; log[compound] -5.52288) of the same compound?
Answer: 93.4227% and 96.9418% and 95.7687% and 88.2279%

Question: And the “% activity KOPN-8” value (KOPN8 cells [1]; log[compound] -5.82391)?
Answer: 91.9145% and 89.5685% and 90.7415% and 92.2497%

Question: What about the “% activity KOPN-8” value (KOPN8 cells [1]; log[compound] -6.12494) of the same compound?
Answer: 92.2497% and 92.4173% and 96.2715% and 88.7306%

Question: What about the “% activity KOPN-8” value (KOPN8 cells [1]; log[compound] -6.42597) of the same compound?
Answer: 96.439% and 101.969% and 107.164% and 94.4282%

Question: And the “% activity K562” value (K562 cells; log[compound] -4.92082)?
Answer: 87.2356% and 88.3293% and 79.0617% and 81.4793%

Question: And the “% activity K562” value (K562 cells; log[compound] -5.22185)?
Answer: 96.906% and 94.8338% and 87.581% and 99.8993%

Question: What about the “% activity K562” value (K562 cells; log[compound] -5.52288) of the same compound?
Answer: 91.5527% and 87.8688% and 87.2356% and 88.1566%

Question: And the “% activity K562” value (K562 cells; log[compound] -5.82391)?
Answer: 106.979% and 101.569% and 98.9783% and 92.4737%

Question: What about the “% activity K562” value (K562 cells; log[compound] -6.12494) of the same compound?
Answer: 95.2367% and 84.818% and 86.8902% and 88.0414%

Question: And the “% activity K562” value (K562 cells; log[compound] -6.42597)?
Answer: 88.8473% and 100.475% and 98.4026% and 99.0934%

Question: And the “KOPN8 % Annexin V(+) cells” value (KOPN8 cells [2]; 2 uM)?
Answer: 6.32% and 5.25% and 5.31%

Question: And the “KOPN8 % Annexin V(+) cells” value (KOPN8 cells [2]; 4 uM)?
Answer: 7.36% and 6.41% and 6.28%

Question: And the “KOPN8 % Annexin V(+) cells” value (KOPN8 cells [2]; 6 uM)?
Answer: 7.96% and 6.03% and 6.25%

Question: What about the “% activity MV4;11” value (MV4;11 cells; log[compound] -4.92082) of the same compound?
Answer: 33.9271% and 38.4523% and 37.682% and 37.2006%

Question: And the “% activity MV4;11” value (MV4;11 cells; log[compound] -5.22185)?
Answer: 75.4242% and 68.4439% and 74.2207% and 76.0501%

Question: And the “% activity MV4;11” value (MV4;11 cells; log[compound] -5.52288)?
Answer: 93.14% and 102.624% and 98.3873% and 102.19%

Question: What about the “% activity MV4;11” value (MV4;11 cells; log[compound] -5.82391) of the same compound?
Answer: 95.1619% and 88.5666% and 92.2253% and 96.7986%

Question: And the “% activity MV4;11” value (MV4;11 cells; log[compound] -6.12494)?
Answer: 101.179% and 95.4026% and 92.466% and 99.4464%

Question: What about the “% activity MV4;11” value (MV4;11 cells; log[compound] -6.42597) of the same compound?
Answer: 105.753% and 96.7024% and 99.7834% and 97.7615%

Question: What about the “% activity MOLM-13” value (MOLM13 cells; log[compound] -4.92082) of the same compound?
Answer: 79.465% and 80.5109% and 111.082% and 96.078%

Question: What about the “% activity MOLM-13” value (MOLM13 cells; log[compound] -5.22185) of the same compound?
Answer: 91.4119% and 88.8777% and 88.5559% and 94.107%

Question: And the “% activity MOLM-13” value (MOLM13 cells; log[compound] -5.52288)?
Answer: 100.261% and 95.3942% and 100.744% and 98.5318%

Question: And the “% activity MOLM-13” value (MOLM13 cells; log[compound] -5.82391)?
Answer: 98.572% and 96.1183% and 100.945% and 90.7281%

Question: What about the “% activity MOLM-13” value (MOLM13 cells; log[compound] -6.12494) of the same compound?
Answer: 105.41% and 99.4972% and 101.227% and 102.474%

Question: What about the “% activity MOLM-13” value (MOLM13 cells; log[compound] -6.42597) of the same compound?
Answer: 103.801% and 99.1352% and 97.8479% and 99.2156%

Question: And the “MV4;11 fold change vs DMSO, FLT3” value [3]?
Answer: 1.06 and 0.99 and 0.95

Question: What about the “MV4;11 fold change vs DMSO, HOXA9” value [3] of the same compound?
Answer: 1.01 and 0.9

Question: And the “MV4;11 fold change vs DMSO, MEF2C” value [3]?
Answer: 1.19 and 1.02 and 0.92

Question: And the “MV4;11 fold change vs DMSO, MESIS1” value [3]?
Answer: 0.86 and 1.07 and 0.96
